Measured values from publication PMC11737341, “Cloning and functional verification of Geraniol-10-Hydroxylase gene in Lonicera japonica” (PeerJ, 2025).

Target: T1, LjG10H (geraniol 10-hydroxylase) (Lonicera japonica, UniProt U5NH25)
T1 construct: pET32a, N-terminal TRX/His tag kept (band about 72 kDa), E. coli BL21, Ni column
Assay: HPLC detection of 10-hydroxygeraniol formed by purified recombinant protein
Assay type: biochemical
Settings: 2.5 mmol/L geraniol, 1 mmol/L NADPH with glucose-6-phosphate / G6PDH, FAD, FMN, EDTA, DTT, potassium phosphate pH 7.6, 30 °C, 3 h; no P450 reductase mentioned

T1 sequence (U5NH25 entry or part of it): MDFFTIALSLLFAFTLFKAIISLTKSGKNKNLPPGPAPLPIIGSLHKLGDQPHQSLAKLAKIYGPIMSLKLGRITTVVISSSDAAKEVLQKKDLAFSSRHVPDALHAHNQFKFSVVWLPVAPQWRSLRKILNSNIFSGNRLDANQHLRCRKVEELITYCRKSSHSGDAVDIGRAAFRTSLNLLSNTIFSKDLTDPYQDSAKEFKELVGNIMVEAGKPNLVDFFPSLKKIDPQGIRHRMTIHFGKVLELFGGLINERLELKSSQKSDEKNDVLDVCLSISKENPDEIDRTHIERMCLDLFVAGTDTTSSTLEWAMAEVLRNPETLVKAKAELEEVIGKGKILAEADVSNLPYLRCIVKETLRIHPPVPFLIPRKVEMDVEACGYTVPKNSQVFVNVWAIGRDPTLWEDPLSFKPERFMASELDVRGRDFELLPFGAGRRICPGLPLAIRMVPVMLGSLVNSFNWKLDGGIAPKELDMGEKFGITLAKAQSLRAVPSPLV

Structure (SMILES): CC(C)=CCC/C(C)=C/CO [geraniol]
- HPLC detection of 10-hydroxygeraniol formed by purified recombinant protein: LjG10H exhibits catalytic activity in the conversion of geraniol to 10-hydroxygeraniol in vitro
